In the NIST ThermoML archive (doi:10.1016/j.fluid.2013.09.022):

Assay: xn = mol fraction of the nth substance listed
Conditions: Gas, isochoric method

F/C=C/C(F)(F)F [trans-1,3,3,3-tetrafluoropropene] + O=C=O
Conditions	molar volume [m3/mol]
282.98 K, 1378 kPa, x2 = 0.859	0.00149
292.75 K, 1458.4 kPa, x2 = 0.859	0.001491
293.11 K, 1207.5 kPa, x2 = 0.733	0.001776
293.15 K, 1053.5 kPa, x2 = 0.642	0.002057
302.65 K, 741.2 kPa, x2 = 0.254	0.002778
302.78 K, 834.7 kPa, x2 = 0.331	0.002626
302.95 K, 1530.5 kPa, x2 = 0.859	0.001492
303.12 K, 1086.9 kPa, x2 = 0.563	0.002066
303.12 K, 1281.1 kPa, x2 = 0.733	0.001777
303.15 K, 934.1 kPa, x2 = 0.459	0.002372
303.19 K, 1105.4 kPa, x2 = 0.642	0.002058
313.09 K, 773.6 kPa, x2 = 0.155	0.002926
313.1 K, 879.9 kPa, x2 = 0.331	0.002627
313.1 K, 1598.3 kPa, x2 = 0.859	0.001492
313.11 K, 824.7 kPa, x2 = 0.254	0.00278
313.11 K, 979 kPa, x2 = 0.459	0.002373
313.14 K, 1137.1 kPa, x2 = 0.563	0.002067
313.15 K, 1337.5 kPa, x2 = 0.733	0.001778
313.18 K, 1155.7 kPa, x2 = 0.642	0.002059
323.03 K, 1183.9 kPa, x2 = 0.563	0.002067
323.04 K, 918.1 kPa, x2 = 0.331	0.002628
323.06 K, 861.2 kPa, x2 = 0.254	0.002781
323.06 K, 1392.7 kPa, x2 = 0.733	0.001778
323.07 K, 808.6 kPa, x2 = 0.155	0.002928
323.07 K, 1661.1 kPa, x2 = 0.859	0.001493
323.09 K, 1019.8 kPa, x2 = 0.459	0.002374
323.12 K, 1201.6 kPa, x2 = 0.642	0.00206
332.99 K, 1059.7 kPa, x2 = 0.459	0.002375
333.02 K, 897.5 kPa, x2 = 0.254	0.002782
333.03 K, 1246.4 kPa, x2 = 0.642	0.002061
333.04 K, 1723.3 kPa, x2 = 0.859	0.001494
333.05 K, 843.8 kPa, x2 = 0.155	0.002929
333.07 K, 955.4 kPa, x2 = 0.331	0.002629
333.08 K, 1445.3 kPa, x2 = 0.733	0.001779
333.15 K, 1230.3 kPa, x2 = 0.563	0.002068
342.9 K, 1274.8 kPa, x2 = 0.563	0.002069
342.93 K, 1098.9 kPa, x2 = 0.459	0.002376
343.01 K, 1497.2 kPa, x2 = 0.733	0.00178
343.02 K, 991.5 kPa, x2 = 0.331	0.00263
343.05 K, 877.3 kPa, x2 = 0.155	0.00293
343.06 K, 1785.7 kPa, x2 = 0.859	0.001494
343.07 K, 1291.7 kPa, x2 = 0.642	0.002062
343.2 K, 933 kPa, x2 = 0.254	0.002783
352.96 K, 1140 kPa, x2 = 0.459	0.002377
353.01 K, 1320.4 kPa, x2 = 0.563	0.00207
353.02 K, 910 kPa, x2 = 0.155	0.002931
353.03 K, 1336.3 kPa, x2 = 0.642	0.002062
353.03 K, 1847.2 kPa, x2 = 0.859	0.001495
353.1 K, 1027.7 kPa, x2 = 0.331	0.002631
353.12 K, 967.3 kPa, x2 = 0.254	0.002784
353.14 K, 1549.7 kPa, x2 = 0.733	0.001781
362.89 K, 1178.4 kPa, x2 = 0.459	0.002378
362.94 K, 1380.5 kPa, x2 = 0.642	0.002063
363.03 K, 1000.8 kPa, x2 = 0.254	0.002786
363.05 K, 1365.6 kPa, x2 = 0.563	0.002071
363.08 K, 942.8 kPa, x2 = 0.155	0.002933
363.08 K, 1908.8 kPa, x2 = 0.859	0.001496
363.12 K, 1601.3 kPa, x2 = 0.733	0.001781
363.14 K, 1063.4 kPa, x2 = 0.331	0.002632
